US20210122730A1, “GLUCOCORTICOID RECEPTOR MODULATORS” (ORIC Pharmaceuticals, Inc., priority 2017, published 2021)

Columns and labels:
CYP2C8 = biological target: T1, CYP2C8 (Homo sapiens, UniProt P10632); experiment: CYP Inhibition Assay (CYP2C8, human liver microsomes, paclitaxel substrate); type: in vitro ADME; conditions: pH 7.4; pooled human liver microsomes 0.1 mg/mL, probe substrate paclitaxel
T1 construct: Pooled human microsomes were obtained from Sekisui XenoTech, KS; tissue Sekisui XenoTech, KS; host or cells: pooled human liver microsomes
T1 sequence (P10632 1-490): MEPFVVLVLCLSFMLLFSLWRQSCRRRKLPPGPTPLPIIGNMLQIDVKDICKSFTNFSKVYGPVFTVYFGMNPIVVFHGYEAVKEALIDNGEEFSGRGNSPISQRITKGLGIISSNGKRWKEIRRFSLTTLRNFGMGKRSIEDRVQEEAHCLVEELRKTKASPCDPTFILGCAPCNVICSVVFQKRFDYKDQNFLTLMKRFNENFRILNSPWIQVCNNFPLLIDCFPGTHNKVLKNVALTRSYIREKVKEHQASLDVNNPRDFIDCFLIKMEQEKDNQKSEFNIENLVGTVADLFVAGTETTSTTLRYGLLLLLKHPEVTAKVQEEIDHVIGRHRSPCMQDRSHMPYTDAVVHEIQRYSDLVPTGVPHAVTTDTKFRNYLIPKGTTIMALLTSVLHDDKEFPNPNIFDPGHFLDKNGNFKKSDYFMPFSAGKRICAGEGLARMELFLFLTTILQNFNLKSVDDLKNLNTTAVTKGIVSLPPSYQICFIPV
Protocol: Example B: CYP Inhibition Assay
Objective: To assess the % inhibition of test compounds against CYP2C8 enzyme in human liver microsomes.
Pooled human microsomes were obtained from Sekisui XenoTech, KS, and were used for in vitro assessment of compound inhibitory potential of the major drug metabolizing human CYP enzymes.
Test compounds were dissolved in DMSO as 10 mM stock solutions and diluted to 200 µM in acetonitrile as working solutions. The total concentrations of DMSO and acetonitrile were 0.02% and 0.5%, respectively, in the assay.
The assay was performed in duplicate in a 96-well plate. The reaction mixture ([…]) containing a final concentration of 0.1 mg/mL pooled human liver microsomes, 50 mM potassium phosphate, pH 7.4 buffer, was re-warmed at 37° C. for 5 minutes. The reaction was initiated with NADPH solution which was at 1 mM final concentration, and carried out for 5 minutes at 37° C. It was terminated by the addition of 3-fold volume of quench solution (1:1 acetonitrile:methanol with 0.1% formic acid and the internal standard of tolbutamide). The sample was vortexed, centrifuged at 4,000 rpm for 15 min at 4° C. The incubation in the presence of vehicle (0.02% DMSO and 0.5% acetonitrile) was used as the enzyme activity control. The analyses of metabolite 6α-hydroxypaclitaxel in supernatant was performed with LC-MS/MS method (Sciex API 4500 Qtrap coupled to a Shimadzu LC-20AD HPLC).
The CYP enzyme activity was determined based on the formation of 6a-hydroxypaclitaxel metabolite. The % inhibition was calculated using this equation: % Inhibition=100×(1−Ainactivator/Avehicle), where Ainactivator is the CYP enzyme activity in the presence of test compound, and Avehicle is the CYP activity in the presence of vehicle.

GR = biological target: T2, GR (Homo sapiens, UniProt P04150); experiment: In Vitro GR Luciferase Reporter Assay (antagonist mode, CHO-K1-GR-MMTV-Luc reporter cells); type: cell-based
T2 construct: expressed in transfected cells; host or cells: CHO-K1
T2 sequence (P04150 1-777): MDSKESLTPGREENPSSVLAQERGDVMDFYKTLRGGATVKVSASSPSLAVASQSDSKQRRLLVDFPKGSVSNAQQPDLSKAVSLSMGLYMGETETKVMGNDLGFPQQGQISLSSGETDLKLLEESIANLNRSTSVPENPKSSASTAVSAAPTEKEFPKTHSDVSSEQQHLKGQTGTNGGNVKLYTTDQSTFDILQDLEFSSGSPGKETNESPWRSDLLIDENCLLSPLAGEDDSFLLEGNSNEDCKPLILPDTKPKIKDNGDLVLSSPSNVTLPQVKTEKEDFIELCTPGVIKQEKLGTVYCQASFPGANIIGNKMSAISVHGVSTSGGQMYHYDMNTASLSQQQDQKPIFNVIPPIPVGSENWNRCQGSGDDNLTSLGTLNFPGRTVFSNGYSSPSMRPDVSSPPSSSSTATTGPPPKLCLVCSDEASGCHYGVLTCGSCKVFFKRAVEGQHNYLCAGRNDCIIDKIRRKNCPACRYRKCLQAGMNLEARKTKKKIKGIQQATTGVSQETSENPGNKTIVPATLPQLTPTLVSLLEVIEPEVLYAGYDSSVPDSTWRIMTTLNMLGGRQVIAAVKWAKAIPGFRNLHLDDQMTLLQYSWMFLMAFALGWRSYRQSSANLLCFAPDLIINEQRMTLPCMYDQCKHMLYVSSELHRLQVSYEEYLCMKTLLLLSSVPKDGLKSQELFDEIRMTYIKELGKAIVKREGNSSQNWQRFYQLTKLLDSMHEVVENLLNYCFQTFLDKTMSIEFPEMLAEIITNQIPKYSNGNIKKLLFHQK
Method in brief: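 CHO-K1-GR-MMTV-Luc cells in phenol red-free DMEM with 10% CSS, stimulated with 10 nM dexamethasone (final) and treated with 8-point 1:5 compound dilutions for about 18-24 h at 37° C. Luciferase measured by OneGlo luminescence; IC50 derived for inhibition of GR activity.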

[1] = antagonist mode, 10 nM Dexamethasone

Row | SMILES | inhibition at 5 min (CYP2C8) | IC50 (GR; antagonist assay with 10 nM Dexamethasone, 18-24 hours) | IC50 (GR; [1])
1 | CN([C@H]1CCC2=Cc3c(cnn3-c3ccc(F)cc3)C[C@]2(C(=O)c2ccc(C(F)(F)F)cn2)C1)S(=O)(=O)c1cnn(C)n1 [Example 104, N-((4aS,6S)-1-(4-fluorophenyl)-4a-(5-(trifluoromethyl)picolinoyl)-4,4a,5,6,7,8-hexahydro-1H-benzo[f]indazol-6-yl)-N,2-dimethyl-2H-1,2,3-triazole-4-sulfonamide] | 50 to 75% | 100 to 1000 nM | 
2 | Cn1ccc(S(=O)(=O)[C@@]2(F)CCC3=Cc4c(cnn4-c4ccc(F)cc4)C[C@]3(C(=O)c3cc(C(F)(F)F)ccn3)C2)n1 [Example 114, ((4aS,6S)-6-Fluoro-1-(4-fluorophenyl)-6-((1-methyl-1H-pyrazol-3-yl)sulfonyl)-1,4,5,6,7,8-hexahydro-4aH-benzo[f]indazol-4a-yl)(4-(trifluoromethyl)pyridin-2-yl)methanone] | ≤ 25% |  | ≤ 100 nM
3 | CN([C@H]1CCC2=Cc3c(cnn3-c3ccc(F)cc3)C[C@]2(C(=O)c2ncc(C3CC3)s2)C1)S(=O)(=O)c1ccn(C)n1 [Example 140, N-((4aS,6S)-4a-(5-cyclopropylthiazole-2-carbonyl)-1-(4-fluorophenyl)-4,4a,5,6,7,8-hexahydro-1H-benzo[f]indazol-6-yl)-N,1-dimethyl-1H-pyrazole-3-sulfonamide] | 75 to 90% |  | ≤ 100 nM
4 | CN([C@H]1CCC2=Cc3c(cnn3-c3ccc(F)cc3)C[C@]2(C(=O)c2ncc(C(F)(F)F)s2)C1)S(=O)(=O)c1ccn(C)n1 [Example 144, N-((4aS,6S)-1-(4-fluorophenyl)-4a-(5-(trifluoromethyl)thiazole-2-carbonyl)-4,4a,5,6,7,8-hexahydro-1H-benzo[f]indazol-6-yl)-N,1-dimethyl-1H-pyrazole-3-sulfonamide] | 75 to 90% |  | ≤ 100 nM
5 | CCN([C@H]1CCC2=Cc3c(cnn3-c3ccc(F)cc3)C[C@]2(C(=O)c2ncc(C(F)(F)F)s2)C1)S(=O)(=O)c1cnn(C)c1 [Example 153, N-ethyl-N-((4aS,6S)-1-(4-fluorophenyl)-4a-(5-(trifluoromethyl)thiazole-2-carbonyl)-4,4a,5,6,7,8-hexahydro-1H-benzo[f]indazol-6-yl)-1-methyl-1H-pyrazole-4-sulfonamide] | 50 to 75% |  | ≤ 100 nM
6 | CCN([C@H]1CCC2=Cc3c(cnn3-c3ccc(F)cc3)C[C@]2(C(=O)c2cc(C(F)(F)F)ccn2)C1)S(=O)(=O)c1ccn(C)n1 [Example 155, N-ethyl-N-((4aS,6S)-1-(4-fluorophenyl)-4a-(4-(trifluoromethyl)picolinoyl)-4,4a,5,6,7,8-hexahydro-1H-benzo[f]indazol-6-yl)-1-methyl-1H-pyrazole-3-sulfonamide] | 25 to 50% |  | ≤ 100 nM

Second part, the compound after the results:

Row | inhibition at 5 min (CYP2C8) | IC50 (GR; antagonist assay with 10 nM Dexamethasone, 18-24 hours) | IC50 (GR; [1]) | SMILES
7 | 50 to 75% |  | ≤ 100 nM | CN([C@H]1CCC2=Cc3c(cnn3-c3ccc(F)cc3)C[C@]2(C(=O)c2ncc(C(F)(F)F)s2)C1)S(=O)(=O)c1cnn(C)c1 [Example 131, N-((4aS,6S)-1-(4-fluorophenyl)-4a-(5-(trifluoromethyl)thiazole-2-carbonyl)-4,4a,5,6,7,8-hexahydro-1H-benzo[f]indazol-6-yl)-N,1-dimethyl-1H-pyrazole-4-sulfonamide]
8 | 75 to 90% |  | ≤ 100 nM | CN([C@H]1CCC2=Cc3c(cnn3-c3ccc(F)cc3)C[C@]2(C(=O)c2ncc(C3CC3)s2)C1)S(=O)(=O)c1cnn(C)c1 [Example 134, N-((4aS,6S)-4a-(5-cyclopropylthiazole-2-carbonyl)-1-(4-fluorophenyl)-4,4a,5,6,7,8-hexahydro-1H-benzo[f]indazol-6-yl)-N,1-dimethyl-1H-pyrazole-4-sulfonamide]
9 | 50 to 75% |  | ≤ 100 nM | Cn1ncc(S(=O)(=O)N(C2CC2)[C@H]2CCC3=Cc4c(cnn4-c4ccc(F)cc4)C[C@]3(C(=O)c3cc(C(F)(F)F)ccn3)C2)n1 [Example 142, N-cyclopropyl-N-((4aS,6S)-1-(4-fluorophenyl)-4a-(4-(trifluoromethyl)picolinoyl)-4,4a,5,6,7,8-hexahydro-1H-benzo[f]indazol-6-yl)-2-methyl-2H-1,2,3-triazole-4-sulfonamide]
